Assay results from PubChem BioAssay (NCI).
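Following 48 hours of exposure in 96-well plates, responses at five concentrations were used to interpolate endpoints linearly. Here, GI50 denotes the concentration required for 50% inhibition of growth. TGI is the concentration that stops growth completely.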

Assays:
Test in all cases: growth of human tumour cells (NCI), 48 h
SNB-19 CNS = test system: SNB-19 CNS
NCI-H522 lung = test system: NCI-H522 lung
NCI-H226 lung = test system: NCI-H226 lung
HCT-15 colon = test system: HCT-15 colon
LOX IMVI melanoma = test system: LOX IMVI melanoma
M14 melanoma = test system: M14 melanoma
A498 renal = test system: A498 renal
SF-268 CNS = test system: SF-268 CNS
NCI-H460 lung = test system: NCI-H460 lung
EKVX NSCLC = test system: EKVX NSCLC
RPMI-8226 leukemia = test system: RPMI-8226 leukemia
SN12C renal = test system: SN12C renal
HL-60(TB) leukemia = test system: HL-60(TB) leukemia
OVCAR-8 ovarian = test system: OVCAR-8 ovarian
UACC-62 melanoma = test system: UACC-62 melanoma
HS 578T breast = test system: HS 578T breast
DU-145 prostate = test system: DU-145 prostate
PC-3 prostate = test system: PC-3 prostate
HOP-92 NSCLC = test system: HOP-92 NSCLC
SW-620 colon = test system: SW-620 colon
NCI/ADR-RES ovarian = test system: NCI/ADR-RES ovarian
UO-31 renal = test system: UO-31 renal
HCC-2998 colon = test system: HCC-2998 colon
COLO 205 colon = test system: COLO 205 colon
SK-MEL-28 melanoma = test system: SK-MEL-28 melanoma
KM12 colon = test system: KM12 colon
SR leukemia = test system: SR leukemia
SK-MEL-5 melanoma = test system: SK-MEL-5 melanoma
HCT-116 colon = test system: HCT-116 colon
MDA-MB-435 = test system: MDA-MB-435
MCF7 breast = test system: MCF7 breast
HT29 colon = test system: HT29 colon
HOP-62 NSCLC = test system: HOP-62 NSCLC
U251 CNS = test system: U251 CNS
MDA-MB-231 breast = test system: MDA-MB-231 breast
OVCAR-5 ovarian = test system: OVCAR-5 ovarian
MOLT-4 leukemia = test system: MOLT-4 leukemia
NCI-H23 lung = test system: NCI-H23 lung
BT-549 breast = test system: BT-549 breast
T-47D breast = test system: T-47D breast
SNB-75 CNS = test system: SNB-75 CNS
UACC-257 melanoma = test system: UACC-257 melanoma
SF-295 CNS = test system: SF-295 CNS
CAKI-1 renal = test system: CAKI-1 renal
SF-539 CNS = test system: SF-539 CNS
RXF 393 renal = test system: RXF 393 renal
ACHN renal = test system: ACHN renal
TK-10 renal = test system: TK-10 renal
786-0 renal = test system: 786-0 renal
A549 NSCLC = test system: A549 NSCLC
SK-MEL-2 melanoma = test system: SK-MEL-2 melanoma
SK-OV-3 ovarian = test system: SK-OV-3 ovarian
K-562 leukemia = test system: K-562 leukemia
IGROV1 ovarian = test system: IGROV1 ovarian
MALME-3M melanoma = test system: MALME-3M melanoma
CCRF-CEM leukemia = test system: CCRF-CEM leukemia
OVCAR-3 ovarian = test system: OVCAR-3 ovarian

SMILES: Cn1cnc([N+](=O)[O-])c1S(=O)(=O)Oc1ccc(Cl)cc1
- GI50 (SNB-19 CNS): > 100 µM
- TGI (SNB-19 CNS): > 100 µM
- GI50 (NCI-H522 lung): 1.82 µM
- TGI (NCI-H522 lung): 4.22 µM
- GI50 (NCI-H226 lung): 18.6 µM
- TGI (NCI-H226 lung): 58 µM
- GI50 (HCT-15 colon): 1.64 µM
- TGI (HCT-15 colon): 3.47 µM
- GI50 (LOX IMVI melanoma): 1.73 µM
- TGI (LOX IMVI melanoma): 3.57 µM
- GI50 (M14 melanoma): 2.36 µM
- TGI (M14 melanoma): 5.21 µM
- GI50 (A498 renal): 17 µM
- TGI (A498 renal): 42.5 µM
- GI50 (SF-268 CNS): 15.7 µM
- TGI (SF-268 CNS): 38.1 µM
- GI50 (NCI-H460 lung): 32.3 µM
- TGI (NCI-H460 lung): > 100 µM
- GI50 (EKVX NSCLC): 19.1 µM
- TGI (EKVX NSCLC): 49.6 µM
- GI50 (RPMI-8226 leukemia): 3.58 µM
- TGI (RPMI-8226 leukemia): 17.7 µM
- GI50 (SN12C renal): 13.2 µM
- TGI (SN12C renal): 30.8 µM
- GI50 (HL-60(TB) leukemia): 1.85 µM
- TGI (HL-60(TB) leukemia): 3.77 µM
- GI50 (OVCAR-8 ovarian): 18.8 µM
- TGI (OVCAR-8 ovarian): 97.1 µM
- GI50 (UACC-62 melanoma): 13.2 µM
- TGI (UACC-62 melanoma): 29.1 µM
- GI50 (HS 578T breast): 19.6 µM
- TGI (HS 578T breast): 68.1 µM
- GI50 (DU-145 prostate): 4.75 µM
- TGI (DU-145 prostate): 17.8 µM
- GI50 (PC-3 prostate): 17.2 µM
- TGI (PC-3 prostate): 49.2 µM
- GI50 (HOP-92 NSCLC): 1.61 µM
- TGI (HOP-92 NSCLC): 3.37 µM
- GI50 (SW-620 colon): 1.69 µM
- TGI (SW-620 colon): 3.29 µM
- GI50 (NCI/ADR-RES ovarian): 11.7 µM
- TGI (NCI/ADR-RES ovarian): 64.3 µM
- GI50 (UO-31 renal): 2.36 µM
- TGI (UO-31 renal): 8.75 µM
- GI50 (HCC-2998 colon): 15.9 µM
- TGI (HCC-2998 colon): 30.2 µM
- GI50 (COLO 205 colon): 0.546 µM
- TGI (COLO 205 colon): 2.09 µM
- GI50 (SK-MEL-28 melanoma): 19.2 µM
- TGI (SK-MEL-28 melanoma): 51.8 µM
- GI50 (KM12 colon): 23 µM
- TGI (KM12 colon): 91.4 µM
- GI50 (SR leukemia): 1.85 µM
- TGI (SR leukemia): 4.36 µM
- GI50 (SK-MEL-5 melanoma): 15.7 µM
- TGI (SK-MEL-5 melanoma): 32.3 µM
- GI50 (HCT-116 colon): 8.59 µM
- TGI (HCT-116 colon): 21.8 µM
- GI50 (MDA-MB-435): 16.2 µM
- TGI (MDA-MB-435): 36.2 µM
- GI50 (MCF7 breast): 22.9 µM
- TGI (MCF7 breast): 96.1 µM
- GI50 (HT29 colon): 2.33 µM
- TGI (HT29 colon): 5.36 µM
- GI50 (HOP-62 NSCLC): 16.1 µM
- TGI (HOP-62 NSCLC): 39 µM
- GI50 (U251 CNS): 16.6 µM
- TGI (U251 CNS): 55.8 µM
- GI50 (MDA-MB-231 breast): 2.8 µM
- TGI (MDA-MB-231 breast): 5.99 µM
- GI50 (OVCAR-5 ovarian): 15.6 µM
- TGI (OVCAR-5 ovarian): 39.1 µM
- GI50 (MOLT-4 leukemia): 2.25 µM
- TGI (MOLT-4 leukemia): 5.26 µM
- GI50 (NCI-H23 lung): 8.88 µM
- TGI (NCI-H23 lung): 25.6 µM
- GI50 (BT-549 breast): 13.3 µM
- TGI (BT-549 breast): 28.8 µM
- GI50 (T-47D breast): 2.21 µM
- TGI (T-47D breast): 6.3 µM
- GI50 (SNB-75 CNS): 14.1 µM
- TGI (SNB-75 CNS): 29.7 µM
- GI50 (UACC-257 melanoma): 3.59 µM
- TGI (UACC-257 melanoma): 16.6 µM
- GI50 (SF-295 CNS): 25.2 µM
- TGI (SF-295 CNS): > 100 µM
- GI50 (CAKI-1 renal): 1.67 µM
- TGI (CAKI-1 renal): 3.51 µM
- GI50 (SF-539 CNS): 7.11 µM
- TGI (SF-539 CNS): 21 µM
- GI50 (RXF 393 renal): 2.77 µM
- TGI (RXF 393 renal): 8.01 µM
- GI50 (ACHN renal): 1.8 µM
- TGI (ACHN renal): 3.28 µM
- GI50 (TK-10 renal): 27.8 µM
- TGI (TK-10 renal): > 100 µM
- GI50 (786-0 renal): 17 µM
- TGI (786-0 renal): 33 µM
- GI50 (A549 NSCLC): 58.2 µM
- TGI (A549 NSCLC): > 100 µM
- GI50 (SK-MEL-2 melanoma): 18.7 µM
- TGI (SK-MEL-2 melanoma): 61.1 µM
- GI50 (SK-OV-3 ovarian): 50.5 µM
- TGI (SK-OV-3 ovarian): > 100 µM
- GI50 (K-562 leukemia): 2.99 µM
- TGI (K-562 leukemia): 10.2 µM
- GI50 (IGROV1 ovarian): 2.14 µM
- TGI (IGROV1 ovarian): 5.58 µM
- GI50 (MALME-3M melanoma): 1.99 µM
- TGI (MALME-3M melanoma): 4.15 µM
- GI50 (CCRF-CEM leukemia): 2.33 µM
- TGI (CCRF-CEM leukemia): 7.05 µM
- GI50 (OVCAR-3 ovarian): 1.86 µM
- TGI (OVCAR-3 ovarian): 3.42 µM
